Earlier results, collected in patent publication US20160287599A1, “SUBSTITUTED 1,2,4-TRIAZINE-3,5-DIONES AND THE USE THEREOF AS CHYMASE INHIBITORS” (BAYER PHARMA AKTIENGESELLSCHAFT, priority 2013, published 2016).

System: chymase
Conditions: hamsters, myocardial infarction model

For `CCOc1ccccc1CC1C(=O)N(C(=O)NC(c2ccc(C)cc2)c2ccc(C)cc2)C1Oc1ccc(C(=O)O)cc1` (stereo not drawn) [BCEAB], the chymase activity is given as “reduced”, the haemodynamics is given as “improved” and the mortality is given as “reduced”.
